# Publication PMC6271340, “Synthesis and Anti-Tumor Activity of Novel Aminomethylated Derivatives of Isoliquiritigenin” (Molecules, 2014)
# “And” between values parts separate entries of the source, which are not always exact repeats. Equal entries are not always repeated.
# What was measured:
# [1] = tested on: PC-3, human prostate cancer cells; assay: MTT cytotoxicity assay, PC-3; assay type: cell-based; conditions: 72 h
# Description: (§1) We examined the cytotoxicity of ISL nitrogenous derivatives against three cancer cell lines (PC-3, MCF-7 and HO-8910) and normal human THP-1 cells using MTT growth inhibition assays. ISL was used as a positive control. […] The IC50 values were all above 100 µM.
# (§2) Cytotoxicity was evaluated against four human cell lines (MCF-7 breast cancer, PC-3 prostatic cancer, HO-8910 ovarian cancer, and THP1 normal cells). Briefly, MCF-7, PC-3 and HO-8910 cells were separately plated in 96-well culture plates (1 × 10^5 cells/well). After 24 h incubation, cells were treated with compounds 7–16 (0, 3.13, 6.25, 12.5, 25, 50 and 100 µM) for 72 h. MTT solution (5 mg/mL) was then added to each well. After 4 h incubation, the formazan precipitate was dissolved in […] dimethyl sulfoxide (DMSO), and then the absorbance was measured in an ELISA reader (Thermo Molecular Devices Co., Union City, CA, USA) at 570 nm. The cell viability ratio was calculated by the following formula: Inhibitory ratio (%) = (1 − ODtreated/ODcontrol) × 100%.
# [2] = tested on: MCF-7, human breast cancer cells; assay: MTT cytotoxicity assay, MCF-7; assay type: cell-based; conditions: MCF7, 72 h
# Description: as §1, §2
# [3] = tested on: HO-4980, human ovarian cancer cells; assay: MTT cytotoxicity assay, HO-4980 (HO-8910); assay type: cell-based; conditions: 72 h
# Description: as §1, §2
# [4] = MTT cytotoxicity assay, THP-1 normal cells; assay type: cell-based; conditions: human, THP-1 cells (called normal cells)
# Description: as §1, §2
# S180 sarcoma cells = assay: Anti-tumor activity in S180 tumor-bearing mice; assay type: in vivo; conditions: S180 tumor-bearing BALB/c mice
# Description: (§3) Female BALB/c mice (6–8 weeks old, 25 ± 2 g) were obtained from the Third Affiliated Hospital of Harbin Medical University. S180 sarcoma cells were purchased from the Experimental Animal Center of Peking University Health Science Center (Heilongjiang, China). The animals were housed in polypropylene cages and maintained under controlled conditions of 12 h light/12 h dark photoperiod and 55 ± 5% relative humidity at room temperature (28 ± 2 °C). After fed in our facility for 1 week, 40 mice were induced S180 tumor cells according to Wu et al. with some modification. All mice were subcutaneously implanted with 1 × 10^6 cells/mice on the right flank. After inoculation for 24 h, all animals were randomly divided into one untreated control group, one treated positive control group and two treated experimental groups (each group contained 10 mice).
# (§4) Group I (untreated control) received orally the same volume of 0.9% normal saline once per day as the treated groups. Group II (treated positive control) received orally ISL at a dosage of 40 mg/kg body weight once per day. Group III (low dose of ISL derivative 15 treatment) received ISL derivative 15 orally (dissolved in 0.2 mL normal saline) at a dosage of 40 mg/kg body weight once per day. Group IV (high-dose of ISL derivative 15 treatment) received ISL derivative 15 orally (dissolved in 0.2 mL normal saline) at a dosage of 80 mg/kg body weight once per day.
# [5] = Body-weight change as toxicity parameter in S180 tumor-bearing mice; assay type: in vivo; conditions: for BWC (%) body-weight change: S180 tumor-bearing BALB/c mice; for Changes in body weight as parameter for toxicity (in words): ISL derivative 15 at 80 or 40 mg/kg, ISL at 40 mg/kg, S180 tumor-bearing mice
# Description: For comparison, ISL (40 mg/kg) was analyzed as positive control. Changes in body weight were used as parameter for toxicity.
# as §3, §4
Compound,IC50 [1],IC50 [2],IC50 [3],IC50 [4],melting point,TIR (%) tumor inhibitory rate (S180 sarcoma cells; 40 mg/kg orally once per day),TW (g) x ± SD (tumor weight) (S180 sarcoma cells; 40 mg/kg orally once per day),TIR (%) tumor inhibitory rate (S180 sarcoma cells; 80 mg/kg orally once per day),TW (g) x ± SD (tumor weight) (S180 sarcoma cells; 80 mg/kg orally once per day),BWC (%) body-weight change ([5]; 40 mg/kg orally once per day),BWC (%) body-weight change ([5]; 80 mg/kg orally once per day),Changes in body weight as parameter for toxicity (in words) [5]
"CN(C)Cc1c(O)ccc(C(=O)/C=C/c2ccc(O)cc2)c1O [Compound 7, (E)-1-(3-(dimethylaminomethyl)-2,4-dihydroxyphenyl)-3-(4-hydroxyphenyl)prop-2-en-1-one]",> 100 µM,> 100 µM,> 100 µM,> 100 µM,> 176 °C,,,,,,,
"O=C(/C=C/c1ccc(O)cc1)c1ccc(O)c(CN2CCOCC2)c1O [Compound 8, (E)-1-(2,4-dihydroxy-3-(morpholinomethyl)phenyl)-3-(4-hydroxyphenyl)prop-2-en-1-one]",48.6 µM,> 100 µM,96.4 µM,> 100 µM,> 180 °C,,,,,,,
"O=C(/C=C/c1ccc(O)cc1)c1ccc(O)c(CNC2CCCCC2)c1O [Compound 9, (E)-1-(3-(cyclohexylaminomethyl)-2,4-dihydroxyphenyl)-3-(4-hydroxyphenyl)prop-2-en-1-one]",28.3 µM,73.6 µM,> 100 µM,> 100 µM,> 168 °C,,,,,,,
CC(C)N(Cc1c(O)ccc(C(=O)/C=C/c2ccc(O)cc2)c1O)C(C)C [Compound 10],> 100 µM,84.6 µM,98.1 µM,> 100 µM,> 180 °C,,,,,,,
"CCN(CC)Cc1c(O)ccc(C(=O)/C=C/c2ccc(O)cc2)c1O [Compound 11, (E)-1-(3-((diethylamino)methyl)-2,4-dihydroxyphenyl)-3-(4-hydroxyphenyl)prop-2-en-1-one]",66 µM,> 100 µM,97.3 µM,> 100 µM,> 176 °C,,,,,,,
"CCC(C)NCc1c(O)ccc(C(=O)/C=C/c2ccc(O)cc2)c1O (stereo not shown) [Compound 12, (E)-1-(3-((sec-butylamino)methyl)-2,4-dihydroxyphenyl)-3-(4-hydroxyphenyl)prop-2-en-1-one]",57.1 µM,84.8 µM,> 100 µM,> 100 µM,> 175 °C,,,,,,,
"CC(C)(C)NCc1c(O)ccc(C(=O)/C=C/c2ccc(O)cc2)c1O [Compound 13, (E)-1-(3-((tert-butylamino)methyl)-2,4-dihydroxyphenyl)-3-(4-hydroxyphenyl)prop-2-en-1-one]",> 100 µM,> 100 µM,> 100 µM,> 100 µM,> 170 °C,,,,,,,
"O=C(C=Cc1ccc(O)cc1)c1ccc(O)c(CNCCO)c1O [Compound 14, 1-(2,4-dihydroxy-3-((2-hydroxyethylamino)methyl)phenyl)-3-(4-hydroxyphenyl)propen-1-one]",87.7 µM,66 µM,89 µM,> 100 µM,> 180 °C,,,,,,,
"O=C(/C=C/c1ccc(O)cc1)c1ccc(O)c(CN(CCO)CCO)c1O [Compound 15, (E)-1-(3-((bis(2-hydroxyethyl)amino)methyl)-2,4-dihydroxyphenyl)-3-(4-hydroxyphenyl)prop-2-en-1-one]",35.1 µM,42.9 µM,37.9 µM,> 100 µM,,39.72%,0.74 ± 0.618 g,71.68%,0.35 ± 0.442 g,+12.8%,+7.8%,Loss of body weight was not found
O=C(/C=C/c1ccc(O)cc1)c1ccc(O)c(CN2CCCC2)c1O [Compound 16],> 100 µM,81.8 µM,74.9 µM,> 100 µM,116.5 to 117.1 °C and 116.5 to 117.4 °C,,,,,,,
"O=C(/C=C/c1ccc(O)cc1)c1ccc(O)cc1O [ISL, isoliquiritigenin]",36.9 µM,44.1 µM,58.4 µM,> 100 µM,,32.44%,0.85 ± 0.369 g,,,−3.0%,,slight weight loss
